Results taken from patent US9289447B2, “Chemotherapeutic methods and compositions” (Gilead Biologics, Inc., priority 2009, dated 2016).

T1: LOXL2 (Homo sapiens, UniProt Q9Y4K0)
T1 sequence (Q9Y4K0 26-774): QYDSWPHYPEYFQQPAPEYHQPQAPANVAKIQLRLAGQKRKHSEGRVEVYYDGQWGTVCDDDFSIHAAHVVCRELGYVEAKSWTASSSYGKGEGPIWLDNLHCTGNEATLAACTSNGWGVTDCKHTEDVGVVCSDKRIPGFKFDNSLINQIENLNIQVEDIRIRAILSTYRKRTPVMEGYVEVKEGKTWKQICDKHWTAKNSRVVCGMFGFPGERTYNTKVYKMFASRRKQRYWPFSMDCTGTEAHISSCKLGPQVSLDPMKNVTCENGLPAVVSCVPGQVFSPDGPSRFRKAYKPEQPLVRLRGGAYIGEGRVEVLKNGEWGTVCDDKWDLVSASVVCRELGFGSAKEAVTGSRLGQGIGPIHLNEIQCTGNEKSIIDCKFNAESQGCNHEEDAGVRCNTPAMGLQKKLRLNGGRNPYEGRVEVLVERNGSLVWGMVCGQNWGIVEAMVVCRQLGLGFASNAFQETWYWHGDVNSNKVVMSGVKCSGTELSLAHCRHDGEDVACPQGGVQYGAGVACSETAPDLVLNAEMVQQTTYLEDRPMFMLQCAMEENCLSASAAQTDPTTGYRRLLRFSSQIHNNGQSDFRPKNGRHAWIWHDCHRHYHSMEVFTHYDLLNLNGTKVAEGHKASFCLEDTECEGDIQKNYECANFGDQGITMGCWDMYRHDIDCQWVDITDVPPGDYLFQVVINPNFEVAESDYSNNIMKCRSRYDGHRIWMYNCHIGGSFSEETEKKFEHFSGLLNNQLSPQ

B1: M20: monoclonal anti-LOXL2 antibody described in co-owned US 2009/0053224; variable regions SEQ ID NO: 12 and 13 (antibody, V domains shown)
VH: MEWSRVFIFLLSVTAGVHSQVQLQQSGAELVRPGTSVKVSCKASGYAFTYYLIEWVKQRPGQGLEWIGVINPGSGGTNYNEKFKGKATLTADKSSSTAYMQLSSLTSDDSAVYFCARNWMNFDYWGQGTTLTVSS
VL: MRCLAEFLGLLVLWIPGAIGDIVMTQAAPSVSVTPGESVSISCRSSKSLLHSNGNTYLYWFLQRPGQSPQFLIYRMSNLASGVPDRFSGSGSGTAFTLRISRVEAEDVGVYYCMQHLEYPYTFGGGTKLEIK

Key:
MDA231 cells = test: Erlotinib sensitivity (live cell number) of siRNA-transfected MDA231 cells; assay type: cell-based, human; conditions: for effect of siRNA transfection on sensitivity of the cells to erlotinib: MDA 231 cells grown on collagen, 5 days exposure to erlotinib; for effect of siRNA on sensitivity of the cells to erlotinib: MDA 231 cells grown on tissue culture plastic, separate experiments
Experimental: Cells from each of the four aforementioned lines were seeded at 3,000 cells per well in 96-well plates (VWR International, West Chester, Pa.), and cultured in Dulbecco's Modified Eagle's Medium supplemented with 10% fetal bovine serum (DMEM/FBS) at 37° C., 5% CO2 and atmospheric oxygen. Cells were cultured either in untreated wells or in collagen-coated wells, obtained or prepared as described above. Twenty-four hours later, medium was replaced with fresh medium containing various concentrations of erlotinib (LC Laboratories, Woburn, Mass.), cisplatin (Calbiochem, Gibbstown, N.J.) or methotrexate (Calbiochem, Gibbstown, N.J.). After 5 days' culture in the presence of the drug, live cell numbers were determined using the Cell Titer-Glo® luminescent cell viability assay (Promega, San Luis Obispo, Calif.) according to the manufacturer's instructions. For each cell line, three samples were assayed at each drug concentration.
(§1) MDA231 cells were seeded at 7,500 cells per well in 96-well plates (VWR International, West Chester, Pa.) in DMEM/FBS at 37° C., 5% CO2 and atmospheric oxygen. Cells were transfected at the time of seeding with […] RNA oligonucleotide, using the Dharmafect transfection reagent according to the manufacturer's instructions (Thermo Scientific, Lafayette, Colo.). Twenty-four hours later, the medium was replaced with medium containing various concentrations of erlotinib (LC Laboratories, Woburn, Mass.). After 5 days continuous exposure to drug, live cell number was determined as described in Example 1. For each condition, (LOX siRNA, LOXL2 siRNA, or non-targeting siRNA), three samples were assayed at each drug concentration. In addition, levels of mRNAs encoding LOX and LOXL 2 were determined in the in the samples transfected with the LOX- and LOXL2-targeted siRNAs, and normalized to levels of RPL19 mRNA (which encodes a ribosomal protein).

Panc-1 cells = test: Chemotherapeutic sensitivity of Panc-1 cells on extracellular matrices with anti-LOXL2 antibody; assay type: cell-based; conditions: Panc-1 cells plated on different extracellular matrices
Experimental: (§2) Panc-1 or Capan-1 cells (pancreas adenocarcinoma cell lines, ATCC, Manassas, Va.) are resuspended in medium containing 10-50 μg/mL anti-LOXL2 or control IgG antibody. Cells are seeded into 96 well tissue culture plates (10^3-10^4 cells in 100 μL per well) coated with poly-L-lysine, collagen I, collagen IV, fibronectin, or Matrigel™ (BD Biosciences, San Jose, Calif.). Alternatively, cells are plated in standard 96 well tissue culture plates (Costar, VWR International, West Chester, Pa.). Cells are incubated overnight at 37° C. in a 5% CO2 incubator. After sixteen to twenty hours, various concentrations of gemcitabine, docetaxel, doxorubicin, 5-FU or erlotinib are added. Cells are incubated for 3-5 days at 37° C. in a 5% CO2 incubator, and the number of remaining live cells are quantified using the Cell Titer-Glo® luminescent cell viability assay (Promega, Madison, Wis.) according to the manufacturer's instructions. For each condition, samples are assayed in triplicate. The data are analyzed using GraphPad Prism software (or equivalent) to calculate IC50 values from a 4-parameter logistic equation.

Capan-1 cells = test: Chemotherapeutic sensitivity of Capan-1 cells on extracellular matrices with anti-LOXL2 antibody; assay type: cell-based; conditions: Capan-1 cells plated on different extracellular matrices
Experimental: as §2

LOX mRNA = test: Quantitative PCR of LOX mRNA in siRNA-transfected MDA 231 cells; assay type: cell-based, human; conditions: normalized to RPL19 mRNA, compared to non-targeting siRNA, FIG. 13
Experimental: as §1, with “For each condition, (LOX siRNA, LOXL2 siRNA, or non-targeting siRNA), three samples were assayed at each drug concentration.” left out
(§3) For RNA analysis, mRNA was harvested using an RNEasy Mini kit (Qiagen, Valencia, Calif.) according to the manufacturer's instructions. A quantitative PCR reaction was assembled using the Brilliant II Core reagent kit according to the manufacturer's instructions (Agilent Technologies, Cedar Creek, Tex.). The quantitative PCR reaction cycle was as follows: 30 min at 50° C., 10 min at 95° C. and 40 cycles of 15 sec at 95° C. in combination with 1 min at 60° C.

MDA-MB-435 cells = test: Chemotherapeutic sensitivity of MDA-MB-435 cells on extracellular matrices with anti-LOXL2 antibody; assay type: cell-based, human; conditions: MDA-MB-435 cells plated on different extracellular matrices
Experimental: MDA-MB-435 cells (breast adenocarcinoma cell lines, ATCC, Manassas, Va.) are resuspended in medium containing 10-50 μg/mL anti-LOXL2 or control IgG antibody. Cells are seeded into 96 well tissue culture plates (10^3-10^4 cells in 100 μL per well) coated with poly-L-lysine, collagen I, collagen IV, fibronectin, or Matrigel™ (BD Biosciences, San Jose, Calif.). Alternatively, cells are plated in standard 96 well tissue culture plates (Costar, VWR International, West Chester, Pa.). Cells are incubated overnight at 37° C. in a 5% CO2 incubator. After sixteen to twenty hours, various concentrations of cisplatin (DDP), methotrexate, doxorubicin, docetaxel, gemcitabine, or 5-FU are added. Cells are incubated for 3-5 days at 37° C. in a 5% CO2 incubator, and the number of remaining live cells are quantified using the Cell Titer-Glo® luminescent cell viability assay (Promega, Madison, Wis.) according to the manufacturer's instructions. For each condition, samples are assayed in triplicate. The data are analyzed using GraphPad Prism software (or equivalent) to calculate IC50 values from a 4-parameter logistic equation.

LOXL2 mRNA = test: Quantitative PCR of LOXL2 mRNA in siRNA-transfected MDA 231 cells; assay type: cell-based, human; conditions: normalized to RPL19 mRNA, compared to non-targeting siRNA, FIG. 13
Experimental: as §1, with “For each condition, (LOX siRNA, LOXL2 siRNA, or non-targeting siRNA), three samples were assayed at each drug concentration.” left out
as §3

LOXL2 [1] = target: T1, LOXL2; conditions: as disclosed in US 2009/0053224; cited from earlier work
LOXL2 [2] = target: T1, LOXL2; conditions: as disclosed in US 2009/0053224; cited from earlier work; remark: listed apart in the source

Row | Molecule | sensitivity of cells to the chemotherapeutic in the presence of anti-LOXL2 antibodies (Panc-1 cells) | sensitivity of cells to the chemotherapeutic in the presence of anti-LOXL2 antibodies (Capan-1 cells) | sensitivity of cells to the chemotherapeutic in the presence of anti-LOXL2 antibodies (MDA-MB-435 cells) | also measured
1 | C#Cc1cccc(Nc2ncnc3cc(OCCOC)c(OCCOC)cc23)c1 [erlotinib, N-(3-ethynylphenyl)-6,7-bis(2-methoxyethoxy)quinazolin-4-amine] | increased sensitivity | increased sensitivity |  | killing of cells by erlotinib (MDA231 cells; MDA 231 cells on collagen matrix, transfected with siRNA nonhomologous to LOX or LOXL2, FIG. 14): resistant to killing
2 | LOX-targeted siRNA: short RNA homologous to regions near the 3' end of LOX mRNA, from Invitrogen: ACAGGGAUUGAGUCCUGGCUGUUAU (listed as RNA, chemistry not given here) |  |  |  | reduction of levels of LOX mRNA (LOX mRNA): over two-fold; effect of siRNA transfection on sensitivity of the cells to erlotinib (MDA231 cells; FIG. 14): greatly increased sensitivity; effect of siRNA on sensitivity of the cells to erlotinib (MDA231 cells): little or no effect
3 | N.N.[Cl][Pt][Cl] [cisplatin (DDP), cis-diaminedichloroplatinum(II)] |  |  | increased sensitivity | 
4 | Nc1ccn([C@@H]2O[C@H](CO)[C@@H](O)C2(F)F)c(=O)n1 [gemcitabine] | increased sensitivity | increased sensitivity | increased sensitivity | 
5 | COc1cccc2c1C(=O)c1c(O)c3c(c(O)c1C2=O)C[C@@](O)(C(=O)CO)C[C@@H]3O[C@H]1C[C@H](N)[C@H](O)[C@H](C)O1 [doxorubicin] | increased sensitivity | increased sensitivity | increased sensitivity | 
6 | CN(Cc1cnc2nc(N)nc(N)c2n1)c1ccc(C(=O)N[C@@H](CCC(=O)O)C(=O)O)cc1 [methotrexate] |  |  | increased sensitivity | 
7 | LOXL2-targeted siRNA: siRNA homologous to the second SRCR domain of LOXL2, from Invitrogen: UCAACGAAUUGUCAAAUUUGAACCC (listed as RNA, chemistry not given here) |  |  |  | reduction of levels of LOXL2 mRNA (LOXL2 mRNA): five-fold; effect of siRNA transfection on sensitivity of the cells to erlotinib (MDA231 cells; FIG. 14): greatly increased sensitivity; effect of siRNA on sensitivity of the cells to erlotinib (MDA231 cells): little or no effect
8 | O=c1[nH]cc(F)c(=O)[nH]1 [5-FU, 5-fluorouracil] | increased sensitivity | increased sensitivity | increased sensitivity | 
9 | CC(=O)O[C@@]12CO[C@@H]1C[C@H](O)[C@@]1(C)C(=O)[C@H](O)C3=C(C)[C@@H](OC(=O)[C@H](O)[C@@H](NC(=O)OC(C)(C)C)c4ccccc4)C[C@@](O)([C@@H](OC(=O)c4ccccc4)[C@H]21)C3(C)C [docetaxel] | increased sensitivity | increased sensitivity | increased sensitivity | 
10 | B1 |  |  |  | binding site on LOXL2 (LOXL2 [1]): binds to the SRCR3-4 domain of LOXL2; extent of inhibition of LOXL2 enzymatic activity (LOXL2 [2]): partial inhibitor; mode of inhibition of LOXL2 enzymatic activity (LOXL2 [2]): non-competitive inhibitor
